PMC4310642 (Journal of Medicinal Chemistry, 2014)

Key:
[1] = target: PKCδ C1b domain N7R/S10R/L20R triple mutant (Mus musculus, UniProt P28867, L250R/N237R/S240R); test: Competitive [20-3H]PDBu binding to GST-C1b domain, N7R/S10R/L20R
[2] = system: PKCδ C1b domain S10R mutant; format: binding
[3] = target: PKCδ C1b domain N7R mutant (Mus musculus, UniProt P28867, N237R); test: Competitive [20-3H]PDBu binding to GST-C1b domain, N7R
[4] = target: PKCδ C1b domain P11R mutant (Mus musculus, UniProt P28867, P241R); test: Competitive [20-3H]PDBu binding to GST-C1b domain, P11R
Chain of PKCδ C1b domain P11R mutant (P28867 230-280 P241R): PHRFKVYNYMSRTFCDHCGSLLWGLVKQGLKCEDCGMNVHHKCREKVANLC

Chain of PKCδ C1b domain N7R/S10R/L20R triple mutant (P28867 230-280 N237R/S240R/L250R): as the sequence (P28867 230-280 P241R) above, with N8R, S11R, R12P, L21R counted along it
Chain of PKCδ C1b domain N7R mutant (P28867 230-280 N237R): as the sequence (P28867 230-280 P241R) above, with N8R, R12P counted along it

Q: With CC(C)CC(C/C=C1\CC(CO)(COC(=O)C(C)(CO)CO)OC1=O)CC(C)C (stereo not shown) [13-E] as the compound, how does the “reduction in binding affinity with the triple mutant N7R/S10R/L20R compared to the wild-type” value [1] read?
A: Its value is “no further loss of affinity”.

Q: CCCC(=O)O[C@@H]1[C@@H](C)[C@@]2(O)[C@@H](C=C(CO)C[C@]3(O)C(=O)C(C)=C[C@@H]23)[C@@H]2C(C)(C)[C@]12OC(=O)CCC [PDBu, phorbol 12,13-dibutyrate] was tested. Which “binding to S10R compared to the wild-type δC1B domain” value [2] did it give?
A: The value was “essentially the same”.

Q: And the “binding to N7R weaker than to the wild-type δC1B domain” value [3]?
A: Its value is “about 5 fold”.

Q: And the “binding to P11R weaker than to the wild-type δC1B domain” value [4]?
A: The value was “about 5 fold”.
